# The source made the active and inactive calls. The rule behind the calls is not given here.
# What was measured:
# cTAR DNA [1] = assay: Binding affinity to HIV1 nucleocapsid protein (11 to 55 residues)-targeted Rh6G-5'-cTAR DNA-3'-Dabcyl/dTAR assessed as inhibition of NC-promoted annealing of Rh6G-5'-cTAR DNA-3'-Dabcyl/unlabeled dTAR at 0.4 uM by spectrofluorimetry analysis; assay type: nucleic-acid assay; settings: Human immunodeficiency virus 1
# cTAR DNA [2] = assay: Binding affinity to HIV1 nucleocapsid protein (11 to 55 residues)-targeted Rh6G-5'-cTAR DNA-3'-Dabcyl assessed as inhibition of NC-induced viral Rh6G-5'-cTAR DNA-3'-Dabcyl destabilization by measuring fluorescence intensity up to 60 mins by fluorescence assay; assay type: nucleic-acid assay, Human immunodeficiency virus 1
# ssDNA [3] = assay: Competitive binding affinity to HIV1 S3G5 oligonucleotide at 20 degreeC by isothermal titration calorimetry; assay type: nucleic-acid assay; settings: Human immunodeficiency virus 1
# [4] = test system: Human immunodeficiency virus 1; assay: Binding affinity to HIV1 nucleocapsid protein (11 to 55 residues) assessed as increase in fluorescence intensity of Trp37 residue at 100 uM by fluorescence anisotropy assay
# [5] = test system: Human immunodeficiency virus 1; assay: Binding affinity to HIV1 nucleocapsid protein (11 to 55 residues) assessed as change in fluorescence intensity of Trp37 residue up to 100 uM by fluorescence based analysis
# ssDNA [6] = assay: Competitive binding affinity to HIV1 S3G5 oligonucleotide assessed as equilibrium dissociation constant by isothermal titration calorimetry; assay type: nucleic-acid assay, Human immunodeficiency virus 1
# [7] = test system: Human immunodeficiency virus 1; assay: Binding affinity to HIV1 nucleocapsid protein (11 to 55 residues) assessed as change in fluorescence intensity of Trp37 residue up to 10 uM by fluorescence anisotropy assay
# PBS RNA [8] = assay: Binding affinity to HIV1 propidium iodide-labeled double stranded (-)/(+)-PBS sequence by fluorescence anisotropy assay; assay type: nucleic-acid assay; settings: Human immunodeficiency virus 1
# PBS RNA [9] = assay: Inhibition of annealing of HIV1 Rh6G-5'-(+)-PBS-3'-Dabcyl/(-)-PBS at 4 uM by spectrofluorimetry analysis relative to control; assay type: nucleic-acid assay; settings: Human immunodeficiency virus 1
# ssDNA [10] = assay: Binding affinity to HIV1 single stranded fluorescein-labeled-5'-S3G5 oligonucleotide at 5'-S3G5 oligonucleotide to compound stoichiometry ratio of 1:3 by fluorescence anisotropy assay; assay type: nucleic-acid assay; settings: Human immunodeficiency virus 1
# [11] = test system: Human immunodeficiency virus 1; assay: Antiviral activity against HIV1 3B infected in human MT4 cells assessed as protection against virus-induced cytopathic effect incubated for 5 days by MTT assay; assay type: functional, organism-based; settings: Human immunodeficiency virus 1, 3B, MT4, 120 h
# [12] = Solubility of compound in water; assay type: physicochemical; settings: buffer
# [13] = Cytotoxicity against human U373 cells expressing CD4-CCR5 assessed as reduction in cell viability incubated for 48 hrs by luciferase assay; assay type: cell-based, U-373MG ATCC; settings: U373 MG
# [14] = Cytotoxicity against human MT4 cells assessed as reduction in cell viability incubated for 5 days by MTT assay; assay type: cell-based
# [15] = Therapeutic index, ratio of CC50 for human U373 cells expressing CD4-CCR5 to IC50 for HIV1 pNL4.3deltaenvLuc-ADA 8 pseudotyped virus infected in human U373-CD4-CCR5 cells; assay type: toxicity, cell-based; settings: read-out: Ratio CC50/IC50
# cTAR DNA [16] = assay: Binding affinity to HIV1 fluorescein-labeled-5'-cTAR DNA at cTAR to compound complex stoichiometry ratio of 1:3 using 80 mM NaCl by fluorescence anisotropy assay; assay type: nucleic-acid assay, Human immunodeficiency virus 1
# ssDNA [17] = assay: Competitive binding affinity to HIV1 S3G5 oligonucleotide assessed as apparent equilibrium dissociation constant of NC(11 to 55 residues) to S3G5 oligonucleotide at 5 uM and 20 degreeC by isothermal titration calorimetry (reference value: 0.15 +/ 0.1 microM); assay type: nucleic-acid assay; settings: Human immunodeficiency virus 1
# [18] = test system: Human immunodeficiency virus 1; assay: Antiviral activity against HIV1 pNL4.3deltaenvLuc-ADA 8 pseudotyped virus infected in human U373-CD4-CCR5 cells assessed as reduction in viral infection measured after 48 hrs by luciferase assay; assay type: functional, organism-based; settings: Human immunodeficiency virus 1, 48 h
# cTAR DNA [19] = assay: Inhibition of annealing of HIV1 Rh6G5'-cTAR DNA-3'-Dabcyl/unlabeled dTAR at 4 uM after 25 hrs by spectrofluorimetry analysis; assay type: nucleic-acid assay; settings: Human immunodeficiency virus 1
# PBS RNA [20] = assay: Binding affinity to HIV1 nucleocapsid protein (11 to 55 residues)-targeted Rh6G-5'-(+)-PBS-3'-Dabcyl/(-)-PBS assessed as inhibition of NC-promoted annealing of +/- PBS sequence at 4 uM by spectrofluorimetry analysis relative to control; assay type: nucleic-acid assay; settings: Human immunodeficiency virus 1
# cTAR DNA [21] = assay: Binding affinity to HIV1 propidium iodide-labeled-5'-cTAR DNA at cTAR to compound complex stoichiometry ratio of 1:3 using 30 mM NaCl by fluorescence anisotropy assay; assay type: nucleic-acid assay; settings: Human immunodeficiency virus 1
# cTAR DNA [22] = assay: Binding affinity to HIV1 fluorescein-labeled-5'-cTAR DNA at cTAR to compound complex stoichiometry ratio of 1:3 using 30 mM NaCl by fluorescence anisotropy assay; assay type: nucleic-acid assay, Human immunodeficiency virus 1
# cTAR DNA [23] = assay: Binding affinity to HIV1 fluorescein-labeled-5'-cTAR DNA at cTAR to compound complex stoichiometry ratio of 1:3 using 150 mM NaCl by fluorescence anisotropy assay; assay type: nucleic-acid assay; settings: Human immunodeficiency virus 1
# cTAR DNA [24] = assay: Binding affinity to HIV1 nucleocapsid protein (11 to 55 residues)-targeted Rh6G-5'-cTAR DNA-3'-Dabcyl/dTAR assessed as inhibition of NC-promoted annealing of Rh6G-5'-cTAR DNA-3'-Dabcyl/unlabeled dTAR at 4 uM after 25 hrs by spectrofluorimetry analysis relative to control; assay type: nucleic-acid assay; settings: Human immunodeficiency virus 1
# ssDNA [25] = assay: Competitive binding affinity to HIV1 S3G5 oligonucleotide assessed as apparent equilibrium dissociation constant of NC(11 to 55 residues) to S3G5 oligonucleotide at 20 uM and 20 degreeC by isothermal titration calorimetry (reference value: 0.15 +/- 0.1 microM); assay type: nucleic-acid assay; settings: Human immunodeficiency virus 1
smiles,measurement,setting,value
CCc1c(CN)c(CC)c2c(CC)c1CNCc1ccc([nH]1)CNCc1c(CC)c(CNCc3ccc[nH]3)c(CC)c(c1CC)CNCc1ccc([nH]1)CNC2,Activity,cTAR DNA [1],Active
same,IC50,cTAR DNA [2],4.4 µM
same,Activity,ssDNA [3],Dose-dependent effect
same,Activity,[4],Active
same,Activity,[5],inactive
same,Kd,ssDNA [6],0.26 µM
same,Activity,[7],inactive
same,Activity,PBS RNA [8],inactive
same,inhibition,PBS RNA [9],100%
same,K,ssDNA [10],0.6 µM
same,IC50,[11],13.5 µM
same,solubility,[12],Soluble
same,IC50,[13],15 µM
same,CC50 at 120 h,[14],24 µM
same,selectivity ratio,[15],8
same,Kd,cTAR DNA [16],2 µM
same,Kapp,ssDNA [17],1.5 µM
same,IC50,[18],1.8 µM
same,inhibition,cTAR DNA [19],Active
same,inhibition,PBS RNA [20],100%
same,Activity,cTAR DNA [21],Active
same,Kd,cTAR DNA [22],0.23 µM
same,Activity,cTAR DNA [23],inactive
same,inhibition,cTAR DNA [24],100%
same,Kapp,ssDNA [25],12 µM
CCc1c(CNCc2ccc[nH]2)c(CC)c2c(CC)c1CNCc1ccc([nH]1)CNCc1c(CC)c(CNCc3ccc[nH]3)c(CC)c(c1CC)CNCc1ccc([nH]1)CNC2,IC50,cTAR DNA [2],17 µM
CCc1c2c(CC)c(CN[C@H]3CCCC[C@@H]3N)c(CC)c1CN[C@H]1CCCC[C@@H]1NCc1ccc([nH]1)CN[C@H]1CCCC[C@@H]1NC2,IC50,cTAR DNA [2],63 µM
CCc1c(CN[C@H]2CCCC[C@@H]2NCc2ccc[nH]2)c(CC)c(CN[C@H]2CCCC[C@@H]2NCc2ccc[nH]2)c(CC)c1CN[C@H]1CCCC[C@@H]1NCc1ccc[nH]1,IC50,cTAR DNA [2],93 µM
CCc1c(CN[C@@H]2CCCC[C@H]2N)c(CC)c2c(CC)c1CN[C@@H]1CCCC[C@H]1NCc1ccc([nH]1)CN[C@@H]1CCCC[C@H]1NC2,IC50,cTAR DNA [2],60 µM
c1c[nH]c(CNCc2cc(CNCc3ccc[nH]3)c(CNCc3ccc[nH]3)c(CNCc3ccc[nH]3)c2)c1,IC50,cTAR DNA [2],130 µM
c1c[nH]c(CNCc2ccc(CNCc3ccc[nH]3)c3c(CNCc4ccc[nH]4)ccc(CNCc4ccc[nH]4)c23)c1,IC50,cTAR DNA [2],10 µM
CCc1c(CN)c(CC)c2c(CC)c1CNCc1ccc([nH]1)CNCc1c(CC)c(CN)c(CC)c(c1CC)CNCc1ccc([nH]1)CNC2,IC50,cTAR DNA [2],4.9 µM
CCc1c(CN[C@@H]2CCCC[C@H]2NCc2ccc[nH]2)c(CC)c(CN[C@@H]2CCCC[C@H]2NCc2ccc[nH]2)c(CC)c1CN[C@@H]1CCCC[C@H]1NCc1ccc[nH]1,IC50,cTAR DNA [2],96 µM
CCc1c(CNCCNCc2ccc[nH]2)c(CC)c(CNCCNCc2ccc[nH]2)c(CC)c1CNCCNCc1ccc[nH]1,IC50,cTAR DNA [2],58 µM
CCc1c(CNCc2ccc[nH]2)c(CC)c(CNCc2ccc[nH]2)c(CC)c1CNCc1ccc[nH]1,IC50,cTAR DNA [2],150 µM
c1c[nH]c(CNCc2c(CNCc3ccc[nH]3)c(CNCc3ccc[nH]3)c(CNCc3ccc[nH]3)c(CNCc3ccc[nH]3)c2CNCc2ccc[nH]2)c1,IC50,cTAR DNA [2],52 µM

# From ChEMBL document CHEMBL4613284, “A Class of Potent Inhibitors of the HIV-1 Nucleocapsid Protein Based on Aminopyrrolic Scaffolds” (ACS Med Chem Lett, 2020)
